Data from the NIST ThermoML archive (doi:10.1021/je060271a).

Settings: 343.15 K, Liquid, Vibrating tube method

CCCCCCC(=O)OCC(COC(=O)CCCCCC)(COC(=O)CCCCCC)COC(=O)CCCCCC [pentaerythritol tetraheptanoate]
Settings	mass density [kg/m3]
476.1 kPa	940.9
482 kPa	941
488.1 kPa	940.8
495.4 kPa	940.9
502 kPa	940.9
508.7 kPa	940.9
517.2 kPa	941
524.5 kPa	941
532 kPa	941.1
540.9 kPa	940.9
548.4 kPa	941
556.3 kPa	941.1
566.3 kPa	941.1
574.9 kPa	941
583.8 kPa	940.9
594.9 kPa	941
603.8 kPa	941
613.5 kPa	941.1
625.7 kPa	941.1
635.8 kPa	941.1
646.5 kPa	941
659.6 kPa	940.9
671.2 kPa	941.2
682.7 kPa	941.2
697.1 kPa	941.1
710.1 kPa	941.2
724 kPa	941.1
738.3 kPa	941
752.5 kPa	941.1
767.1 kPa	941.2
785.4 kPa	941.2
801.2 kPa	941.1
817.7 kPa	941.3
834.7 kPa	941.2
856.1 kPa	941.1
874 kPa	941.2
893.8 kPa	941.3
917.4 kPa	941.2
938.8 kPa	941.3
961.5 kPa	941.3
984.8 kPa	941.2
1008.1 kPa	941.3
1031.5 kPa	941.3
1061.2 kPa	941.5
1083.6 kPa	941.4
1098.2 kPa	941.3
1114.7 kPa	941.4
1128.5 kPa	941.4
1142.9 kPa	941.4
1159.9 kPa	941.4
1174.6 kPa	941.5
1189.9 kPa	941.6
1208.5 kPa	941.5
1224.5 kPa	941.5
1241 kPa	941.6
1261 kPa	941.6
1278.5 kPa	941.6
1296.2 kPa	941.6
1314.1 kPa	941.6
1336.3 kPa	941.6
1355.4 kPa	941.6
1375.4 kPa	941.5
1441 kPa	941.6
1467.4 kPa	941.7
1489.7 kPa	941.8
1512.2 kPa	941.7
1535.7 kPa	941.8
1564.1 kPa	941.8
1588.8 kPa	941.8
1613.6 kPa	941.8
1644.5 kPa	941.8
1671.3 kPa	941.8
1699 kPa	941.9
1727.1 kPa	941.8
1762.2 kPa	941.9
1792.2 kPa	941.9
1821.9 kPa	941.8
1847.4 kPa	942
1859.8 kPa	941.9
1867.2 kPa	942
1876.6 kPa	942
1884.6 kPa	942.1
1892.9 kPa	942
1901.2 kPa	942
1911 kPa	942.1
1919.1 kPa	942
1927.8 kPa	942.1
1937.7 kPa	942.1
1946.9 kPa	942.1
1955.4 kPa	942.1
1964.1 kPa	942.1
1974.3 kPa	942.1
1983.3 kPa	942.1
1992.2 kPa	942
2001 kPa	942.1
2012 kPa	942.2
2021 kPa	942.2
2030.2 kPa	942.1
2040.9 kPa	942.1
2050.5 kPa	942.1
2059.8 kPa	942.2
2069.4 kPa	942.3
2079.3 kPa	942.2
2090.4 kPa	942.2
2099.8 kPa	942.2
2111.2 kPa	942.2
2121.3 kPa	942.1
2130.8 kPa	942.3
2142.6 kPa	942.2
2152.5 kPa	942.2
2162.2 kPa	942.3
2172.5 kPa	942.2
